According to ChEMBL document CHEMBL1165922, “Vitamin D receptor agonist/histone deacetylase inhibitor molecular hybrids” (Bioorg Med Chem, 2010):
pIC50: −log10 of the molar value. Active and inactive are the calls of the source. The rule behind the calls is not given here.

Assays:
Histone deacetylase 3 = Histone deacetylase 3 (Homo sapiens, UniProt O15379); assay: Inhibition of HDAC3 after 10 mins by fluorometric assay
[1] = target: T1, Protein deacetylase HDAC6 (Homo sapiens, UniProt Q9UBN7); assay: Inhibition of HDAC6 after 10 mins by fluorometric assay
T1 sequence (Q9UBN7 whole entry): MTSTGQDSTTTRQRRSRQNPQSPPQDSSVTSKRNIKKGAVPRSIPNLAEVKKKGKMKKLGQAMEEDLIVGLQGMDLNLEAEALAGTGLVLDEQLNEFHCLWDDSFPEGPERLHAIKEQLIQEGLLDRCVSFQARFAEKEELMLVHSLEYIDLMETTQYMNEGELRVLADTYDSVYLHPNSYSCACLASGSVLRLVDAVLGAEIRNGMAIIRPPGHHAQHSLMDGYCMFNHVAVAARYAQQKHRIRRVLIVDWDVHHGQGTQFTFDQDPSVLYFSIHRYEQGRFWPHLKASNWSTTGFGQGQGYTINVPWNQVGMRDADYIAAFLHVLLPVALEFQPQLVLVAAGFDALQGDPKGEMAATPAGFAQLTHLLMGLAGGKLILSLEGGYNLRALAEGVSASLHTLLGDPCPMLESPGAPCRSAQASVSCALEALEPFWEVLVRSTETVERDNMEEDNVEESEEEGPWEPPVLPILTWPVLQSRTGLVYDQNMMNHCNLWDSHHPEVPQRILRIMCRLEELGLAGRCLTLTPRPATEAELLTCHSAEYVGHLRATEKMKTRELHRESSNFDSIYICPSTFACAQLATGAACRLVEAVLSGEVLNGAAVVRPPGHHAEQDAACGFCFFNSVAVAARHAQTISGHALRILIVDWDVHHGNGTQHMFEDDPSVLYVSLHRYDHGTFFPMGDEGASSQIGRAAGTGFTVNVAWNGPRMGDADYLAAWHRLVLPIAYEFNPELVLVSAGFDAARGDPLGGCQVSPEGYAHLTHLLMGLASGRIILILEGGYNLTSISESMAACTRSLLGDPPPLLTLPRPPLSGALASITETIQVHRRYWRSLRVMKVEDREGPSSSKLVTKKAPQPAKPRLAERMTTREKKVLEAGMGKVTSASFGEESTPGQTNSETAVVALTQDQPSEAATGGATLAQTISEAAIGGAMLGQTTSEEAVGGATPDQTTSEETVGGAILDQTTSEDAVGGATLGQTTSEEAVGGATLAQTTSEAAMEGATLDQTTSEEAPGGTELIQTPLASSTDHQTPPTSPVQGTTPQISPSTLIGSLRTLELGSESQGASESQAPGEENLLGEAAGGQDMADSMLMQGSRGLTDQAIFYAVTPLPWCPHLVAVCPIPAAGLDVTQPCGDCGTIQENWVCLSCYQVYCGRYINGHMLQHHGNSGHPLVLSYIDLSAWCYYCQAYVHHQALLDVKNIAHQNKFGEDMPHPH

Mus musculus [2] = assay: Toxicity in FVB mouse assessed as calcium level in blood at 240 pmol/day administered via osmotic pump for 6 to 7 days measured on day 4 by microchemistry (RVb = 2.11 mmol/L); format: organism-based; conditions: in vivo, other
Mus musculus [3] = assay: Toxicity in FVB mouse assessed as calcium level in blood at 1200 pmol/day administered via osmotic pump for 6 to 7 days measured on day 4 by microchemistry (RVb = 2.11 mmol/L); format: organism-based; conditions: in vivo, other
Mus musculus [4] = assay: Toxicity in FVB mouse assessed as calcium level in blood at 240 pmol/day administered via osmotic pump for 6 to 7 days measured on day 7 by microchemistry (RVb = […] mmol/L); format: organism-based; conditions: in vivo, other
Mus musculus [5] = assay: Toxicity in FVB mouse assessed as calcium level in blood at 1200 pmol/day administered via osmotic pump for 6 to 7 days measured on day 7 by microchemistry (RVb = […] mmol/L); format: organism-based; conditions: in vivo, other
Vitamin D3 receptor = target: T2, Vitamin D3 receptor (Homo sapiens, UniProt P11473)
T2 sequence (P11473 whole entry): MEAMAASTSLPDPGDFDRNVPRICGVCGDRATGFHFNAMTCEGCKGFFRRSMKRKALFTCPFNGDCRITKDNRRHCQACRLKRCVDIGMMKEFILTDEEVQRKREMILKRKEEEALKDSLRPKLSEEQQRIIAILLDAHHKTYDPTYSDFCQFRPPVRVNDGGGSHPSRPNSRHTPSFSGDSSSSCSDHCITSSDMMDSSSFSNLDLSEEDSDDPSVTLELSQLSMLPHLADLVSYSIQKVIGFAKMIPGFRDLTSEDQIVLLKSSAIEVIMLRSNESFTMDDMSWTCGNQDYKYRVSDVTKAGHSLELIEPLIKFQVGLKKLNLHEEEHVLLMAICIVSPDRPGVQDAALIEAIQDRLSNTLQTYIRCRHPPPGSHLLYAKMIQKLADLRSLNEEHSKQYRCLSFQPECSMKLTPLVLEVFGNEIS
Description: Binding affinity to VDR ligand binding domain by fluorescence polarization competition assay

Mus musculus [6] = assay: Toxicity in FVB mouse assessed as calcium level in blood at 12 pmol/day administered via osmotic pump for 6 to 7 days measured on day 3 by microchemistry (RVb = 2.24 mmol/L); format: organism-based; conditions: in vivo, other
Mus musculus [7] = assay: Toxicity in FVB mouse assessed as calcium level in blood at 24 pmol/day administered via osmotic pump for 6 to 7 days measured on day 3 by microchemistry (RVb = 2.24 mmol/L); format: organism-based; conditions: in vivo, other
Mus musculus [8] = assay: Toxicity in FVB mouse assessed as calcium level in blood at 48 pmol/day administered via osmotic pump for 6 to 7 days measured on day 3 by microchemistry (RVb = 2.24 mmol/L); format: organism-based; conditions: in vivo, other
Mus musculus [9] = assay: Toxicity in FVB mouse assessed as calcium level in blood at 12 pmol/day administered via osmotic pump for 6 to 7 days measured on day 6 by microchemistry (RVb = 2 mmol/L); format: organism-based; conditions: in vivo, other
Mus musculus [10] = assay: Toxicity in FVB mouse assessed as calcium level in blood at 24 pmol/day administered via osmotic pump for 6 to 7 days measured on day 6 by microchemistry (RVb = 2 mmol/L); format: organism-based; conditions: in vivo, other
Mus musculus [11] = assay: Toxicity in FVB mouse assessed as calcium level in blood at 48 pmol/day administered via osmotic pump for 6 to 7 days measured on day 6 by microchemistry (RVb = 2 mmol/L); format: organism-based; conditions: in vivo, other
Mus musculus [12] = assay: Toxicity in FVB mouse assessed as calcium level in blood at 12 pmol/day administered via osmotic pump for 6 to 7 days measured on day 4 by microchemistry (RVb = 2.11 mmol/L); format: organism-based; conditions: in vivo, other
Mus musculus [13] = assay: Toxicity in FVB mouse assessed as calcium level in blood at 24 pmol/day administered via osmotic pump for 6 to 7 days measured on day 4 by microchemistry (RVb = 2.11 mmol/L); format: organism-based; conditions: in vivo, other
Mus musculus [14] = assay: Toxicity in FVB mouse assessed as calcium level in blood at 12 pmol/day administered via osmotic pump for 6 to 7 days measured on day 7 by microchemistry (RVb = […] mmol/L); format: organism-based; conditions: in vivo, other
Mus musculus [15] = assay: Toxicity in FVB mouse assessed as calcium level in blood at 24 pmol/day administered via osmotic pump for 6 to 7 days measured on day 7 by microchemistry (RVb = […] mmol/L); format: organism-based; conditions: in vivo, other
Histone deacetylase 2 = Histone deacetylase 2 (Homo sapiens, UniProt Q92769); assay: Inhibition of HDAC2 after 10 mins by fluorometric assay
AT84 = assay: Antiproliferative activity against mouse AT84 cells at 100 to 500 nM after 48 hrs by EdU incorporation assay; format: functional, cell-based
Mus musculus [16] = assay: Toxicity in FVB mouse assessed as calcium level in blood at 240 pmol/day administered via osmotic pump for 6 to 7 days measured on day 3 by microchemistry (RVb = 2.24 mmol/L); format: organism-based; conditions: in vivo, other
Mus musculus [17] = assay: Toxicity in FVB mouse assessed as calcium level in blood at 1200 pmol/day administered via osmotic pump for 6 to 7 days measured on day 3 by microchemistry (RVb = 2.24 mmol/L); format: organism-based; conditions: in vivo, other
Mus musculus [18] = assay: Toxicity in FVB mouse assessed as calcium level in blood at 240 pmol/day administered via osmotic pump for 6 to 7 days measured on day 6 by microchemistry (RVb = 2 mmol/L); format: organism-based; conditions: in vivo, other
Mus musculus [19] = assay: Toxicity in FVB mouse assessed as calcium level in blood at 1200 pmol/day administered via osmotic pump for 6 to 7 days measured on day 6 by microchemistry (RVb = 2 mmol/L); format: organism-based; conditions: in vivo, other

Chain of Histone deacetylase 2 (Q92769 whole entry): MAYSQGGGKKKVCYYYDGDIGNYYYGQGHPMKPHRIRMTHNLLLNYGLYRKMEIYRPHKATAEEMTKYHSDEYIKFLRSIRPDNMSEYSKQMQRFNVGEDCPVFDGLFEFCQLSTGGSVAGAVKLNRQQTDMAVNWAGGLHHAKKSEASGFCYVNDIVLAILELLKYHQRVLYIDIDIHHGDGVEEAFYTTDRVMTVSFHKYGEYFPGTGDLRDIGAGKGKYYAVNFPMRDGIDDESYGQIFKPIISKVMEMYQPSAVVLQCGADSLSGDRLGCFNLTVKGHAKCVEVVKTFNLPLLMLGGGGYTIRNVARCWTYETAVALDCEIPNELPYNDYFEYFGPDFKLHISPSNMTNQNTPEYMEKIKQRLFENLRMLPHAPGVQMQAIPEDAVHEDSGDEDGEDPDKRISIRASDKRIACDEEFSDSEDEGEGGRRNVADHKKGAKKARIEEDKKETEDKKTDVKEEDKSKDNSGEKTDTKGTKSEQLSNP
Chain of Histone deacetylase 3 (O15379 whole entry): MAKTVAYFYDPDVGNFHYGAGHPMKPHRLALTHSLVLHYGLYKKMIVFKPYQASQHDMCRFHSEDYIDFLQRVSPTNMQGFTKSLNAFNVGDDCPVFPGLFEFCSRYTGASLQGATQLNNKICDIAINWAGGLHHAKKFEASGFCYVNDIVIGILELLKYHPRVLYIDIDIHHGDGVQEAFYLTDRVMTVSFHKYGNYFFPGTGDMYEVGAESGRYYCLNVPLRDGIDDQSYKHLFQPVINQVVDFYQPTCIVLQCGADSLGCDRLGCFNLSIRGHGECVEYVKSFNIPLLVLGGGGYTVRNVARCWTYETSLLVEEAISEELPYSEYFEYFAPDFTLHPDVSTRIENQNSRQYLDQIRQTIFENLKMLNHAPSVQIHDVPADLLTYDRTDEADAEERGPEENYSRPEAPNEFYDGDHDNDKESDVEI

SMILES	pIC50 (Histone deacetylase 3)	pIC50 [1]	Activity (Mus musculus [2])	Activity (Mus musculus [3])	Activity (Mus musculus [4])	Activity (Mus musculus [5])	pIC50 (Vitamin D3 receptor)	pIC50 (Histone deacetylase 2)	Activity (AT84)	also measured
C[C@H](CCCC(=O)NO)[C@H]1CC[C@H]2/C(=C/C=C3C[C@@H](O)C[C@H](O)C3)CCC[C@]12C	5.49	5.03								
CCCCS(=O)(=O)NCCCC[C@@H](C)[C@H]1CC[C@H]2/C(=C/C=C3C[C@@H](O)C[C@H](O)C3)CCC[C@]12C	3.14	4.00	1.99 mmol/L	2.12 mmol/L	2.05 mmol/L	1.99 mmol/L	7.54			
C=C1/C(=C\C=C2/CCC[C@]3(C)[C@@H]([C@H](C)CCCC(C)(C)O)CC[C@@H]23)C[C@@H](O)C[C@@H]1O [CALCITRIOL]										Activity (Mus musculus [6]): 2.05 mmol/L; Activity (Mus musculus [7]): 3.15 mmol/L; Activity (Mus musculus [8]): 3.07 mmol/L; Activity (Mus musculus [9]): 2.03 mmol/L; Activity (Mus musculus [10]): 4.43 mmol/L; Activity (Mus musculus [11]): Toxic; Activity (Mus musculus [12]): 2.59 mmol/L; Activity (Mus musculus [13]): 2.97 mmol/L; Activity (Mus musculus [14]): 2.62 mmol/L; Activity (Mus musculus [15]): 3.21 mmol/L
C[C@H](CCCCNC(=O)CS)[C@H]1CC[C@H]2/C(=C/C=C3C[C@@H](O)C[C@H](O)C3)CCC[C@]12C	4.49	5.76	2.03 mmol/L	2 mmol/L	2.02 mmol/L	2.04 mmol/L	7.44	4.02	Active	
C[C@H](CCCCNS(C)(=O)=O)[C@H]1CC[C@H]2/C(=C/C=C3C[C@@H](O)C[C@H](O)C3)CCC[C@]12C	3.14	3.72					6.49			Activity (Mus musculus [16]): 1.88 mmol/L; Activity (Mus musculus [17]): 2.01 mmol/L; Activity (Mus musculus [18]): 2.22 mmol/L; Activity (Mus musculus [19]): 1.92 mmol/L
CNC(=O)C(=O)CCCC[C@@H](C)[C@H]1CC[C@H]2/C(=C/C=C3C[C@@H](O)C[C@H](O)C3)CCC[C@]12C	4.44	4.19						4.04	Active	
C[C@H](CCCCC(=O)Nc1ccccc1N)[C@H]1CC[C@H]2/C(=C/C=C3C[C@@H](O)C[C@H](O)C3)CCC[C@]12C	3.98	4.09	1.97 mmol/L	2.04 mmol/L	1.8 mmol/L	2.09 mmol/L	6.73	3.72	Active	
